{"source": "paper PMC11820736", "about": "“Design, Synthesis, and Anti-Tyrosinase, Anti-Melanogenic, and Antioxidant Activities of Novel (Z)-3-Benzyl-5-Benzylidene-2-Thioxothiazolidin-4-One Analogs” (Molecules, 2025)", "key": {"[1]": {"tested_on": "B16F10 cells", "assay": "Cytotoxicity assay on B16F10 murine melanoma cells (EZ-Cytox)", "format": "cell-based", "conditions": "1, 2, 5 and 10 μM, 72 h", "experimental": "Cell viability for analogs 1–3 was examined on B16F10 cells at 1, 2, 5, and 10 μM concentrations for 72 h.\nThe influence of (Z)-BBTT analogs 1–3 on B16F10 cell viability was studied using an EZ-Cytox solution (EZ-1000®, DoGenBio, Seoul, Republic of Korea). B16F10 cells were seeded at a density of 1 × 10^3 in each well of a 96-well plate, and the plate was cultivated under normal cell culture conditions for 24 h. Analogs were added to each well at concentrations of 0, 1, 2, 5, and 10 μM, and then cells were cultivated for 72 h under normal cell culture conditions. An aliquot (10 μL) of the EZ-Cytox solution was added to each well and cultivated for 2 h. Well absorbance was recorded at 450 nm using a VE microplate reader to calculate cell viability."}, "[2]": {"tested_on": "HaCaT cells", "assay": "Cytotoxicity assay on HaCaT cells (EZ-Cytox)", "format": "cell-based, human", "conditions": "2, 5, 10 and 20 μM, 72 h", "experimental": "As keratinocytes are one of the major cells that constitute the epidermis, the effects of analogs 1–3 on HaCaT (immortalized human keratinocytes) cell viability were investigated. Analogs 1–3 were tested at concentrations of 0, 2, 5, 10, and 20 μM, and cell viability was determined 72 h after incubation.\nThe effect of (Z)-BBTT analogs 1–3 on HaCaT cell viability was examined using EZ-Cytox solution. HaCaT cells were seeded at a density of 1 × 10^3 in each well of a 96-well plate, and the plate was cultivated under normal cell culture conditions for 24 h. Analogs 1–3 were added to each well at concentrations of 0, 2, 5, 10, and 20 μM and then cultivated for 72 h under normal cell culture conditions. An aliquot (10 μL) of the EZ-Cytox solution was added to each well and cultivated for 2 h. Well absorbance was recorded at 450 nm using a VE microplate reader to calculate HaCaT cell viability."}, "[3]": {"molecular_target": "T1, B16F10 cellular tyrosinase (Mus musculus, UniProt P11344)", "T1 construct": "endogenous in cells; host or cells: B16F10 murine melanoma cells stimulated with α-MSH and IBMX", "T1 sequence (P11344 19-533)": "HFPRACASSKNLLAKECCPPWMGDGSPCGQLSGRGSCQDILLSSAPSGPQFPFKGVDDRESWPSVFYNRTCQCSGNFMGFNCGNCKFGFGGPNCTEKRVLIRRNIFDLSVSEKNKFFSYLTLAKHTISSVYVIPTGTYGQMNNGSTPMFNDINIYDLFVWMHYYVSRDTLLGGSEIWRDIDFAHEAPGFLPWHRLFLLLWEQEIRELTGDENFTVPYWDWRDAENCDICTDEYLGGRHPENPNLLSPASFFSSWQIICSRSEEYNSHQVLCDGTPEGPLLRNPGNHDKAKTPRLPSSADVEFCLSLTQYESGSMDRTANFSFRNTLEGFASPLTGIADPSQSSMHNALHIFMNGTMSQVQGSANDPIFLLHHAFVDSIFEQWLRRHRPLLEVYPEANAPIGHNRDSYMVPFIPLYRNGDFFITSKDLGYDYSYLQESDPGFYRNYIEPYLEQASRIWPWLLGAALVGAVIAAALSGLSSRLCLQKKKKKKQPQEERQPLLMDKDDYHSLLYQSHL", "assay": "Cellular tyrosinase activity measurement in B16F10 cells", "format": "cell-based, murine", "conditions": "α-MSH + IBMX, 72 h", "experimental": "The cellular tyrosinase inhibitory activity of the test samples was determined by measuring their optical density at 475 nm 72 h after test sample treatment.\nB16F10 cells were seeded at a density of 5000 per well of a 6-well plate, and the plate was cultivated under normal cell culture conditions for 24 h. […] Stimulators (200 μM IBMX and 1 μM α-MSH) were added to each well and cultivated for 72 h under normal cell culture conditions. To determine cellular tyrosinase activity, the cells were washed twice with PBS, treated with lysis buffer solution (100 μL) comprising 50 mM phosphate buffer (pH 6.5) (90 μL), 2 mM phenylmethanesulfonyl fluoride (5 μL), and 20% Triton X-100 (5 μL), and incubated at −80 °C for 30 min. After centrifugation (10,000× g, 4 °C, and 10 min), the supernatants (80 μL each) were transferred to each well of a 96-well plate, then 10 mM L-DOPA (20 μL) was added to each well. The absorbance was measured at 475 nm at 1 min intervals for 10 min using a VE microplate reader to determine cellular tyrosinase activity."}, "[4]": {"molecular_target": "T2, B16F10 cell tyrosinase (Mus musculus, UniProt P11344)", "T2 construct": "endogenous in cells; host or cells: B16F10 murine melanoma cells stimulated with α-MSH and IBMX", "T2 sequence (P11344 19-533)": "T1 sequence (P11344 19-533)", "assay": "In situ cellular tyrosinase activity in B16F10 cells (L-DOPA staining)", "format": "cell-based, murine", "experimental": "To identify the in situ cellular tyrosinase inhibitory activity of analogs 1 and 3, B16F10 cells and L-DOPA were used as the experimental target cells and substrate for melanin synthesis, respectively. […] B16F10 cells were photographed after 2 h of treatment with excess L-DOPA, and the darkness of the cells was measured using the CS analyzer program (ATTO, Tokyo, Japan). Analogs 1 and 3 were used at 2, 5, and 10 μM.\nAfter 1 h, the cells were exposed to 1 μM α-MSH and 200 μM IBMX and cultivated under normal cell culture conditions for 72 h. Cultured cells were fixed using a 4% paraformaldehyde solution for 40 min, washed twice with PBS, and permeabilized using 0.1% Triton X-100 for 2 min. L-DOPA solution (2 mM; 500 μL) was added to each well after washing twice with PBS. After the plate was placed for 2 h at 37 °C, the images for cell staining were acquired using a camera attached to a microscope (Motic, Hong Kong)."}, "[5]": {"molecular_target": "mushroom tyrosinase (Agaricus bisporus, UniProt C7FF04)", "sequence (C7FF04 2-392)": "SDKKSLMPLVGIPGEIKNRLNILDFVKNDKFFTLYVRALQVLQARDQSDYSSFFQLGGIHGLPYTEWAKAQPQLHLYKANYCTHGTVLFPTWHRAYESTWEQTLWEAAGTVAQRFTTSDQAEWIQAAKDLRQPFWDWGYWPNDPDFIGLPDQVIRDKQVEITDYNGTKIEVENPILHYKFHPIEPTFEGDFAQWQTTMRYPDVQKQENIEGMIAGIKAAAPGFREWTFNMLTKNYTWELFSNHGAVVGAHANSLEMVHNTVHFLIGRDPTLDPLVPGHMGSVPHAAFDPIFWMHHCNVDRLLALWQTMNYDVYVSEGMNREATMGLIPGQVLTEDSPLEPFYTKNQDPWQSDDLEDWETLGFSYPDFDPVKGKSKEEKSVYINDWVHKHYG", "assay": "Mushroom tyrosinase inhibition assay (dopachrome, 475 nm)", "format": "biochemical", "conditions": "substrate L-tyrosine", "experimental": "The plate was placed at 37 °C for 30 min, and well absorbance was measured at 475 nm to determine the generated dopachrome amounts in each well using a VersaMax® Elisa (VE) microplate reader (Molecular Devices, San Jose, CA, USA)."}, "[6]": {"tested_on": "B16F10 cells", "assay": "Cellular melanin level measurement in B16F10 cells", "format": "cell-based, murine", "conditions": "72 h", "experimental": "Stimulators comprising 1 μM α-melanocyte-stimulating hormone (α-MSH) and 200 μM 3-isobutyl-1-methylxanthine (IBMX) were administered 1 h after test sample treatment. The effects of analogs 1 and 3 on melanin production were determined by measuring the optical density at 405 nm after 72 h of treatment.\nB16F10 cells were seeded at a density of 5000 per well of a 6-well plate, and the plate was cultivated under normal cell culture conditions for 24 h. […] In addition, 200 μM IBMX and 1 μM α-MSH (Alomone Labs™, Jerusalem, Israel) were added to each well and cultivated for 72 h under the normal cell culture conditions. To determine the cellular melanin levels, 1N–NaOH solution (100 μL) was added to each well and then kept at 60 °C for 1 h to lyse the cells. The cell lysates were washed twice with phosphate-buffered saline (PBS) and transferred to a 96-well plate, and the absorbance was recorded at 405 nm using a VE microplate reader to determine the cellular melanin content."}, "[7]": {"assay": "ROS-scavenging activity (SIN-1, DCFH)", "conditions": "40 μM, SIN-1 10 μM", "experimental": "UV-A radiation induces ROS generation substantially, and oxidative stress accelerates melanin formation in organisms. Thus, the ROS-scavenging ability of (Z)-BBTT analogs was examined to determine whether these analogs have an auxiliary ability to scavenge ROS. 3-Morpholinosydnonimine (SIN-1; 10 μM) was used as a ROS generating substance, and Trolox (40 μM) was used as a positive reference standard.\nThe test samples ((Z)-BBTT analogs 1–12 and Trolox [positive reference standard]) and 3-morpholinosydnonimine (SIN-1) were dissolved in DMSO and PBS, respectively. To prepare 2′,7′-dichlorodihydrofluorescein (DCFH) solution, PBS (50 mM; 4.9 mL, pH 7.4) and DCFH diacetate (2.5 mM; 0.05 mL) were mixed with esterase (15 units/10 mL; 0.05 mL). After storage for 30 min at 20 °C, the mixture was placed in the dark until further use. SIN-1 (10 µL) was added to each well of a 96-well black plate containing PBS (180 µL) and test sample (10 µL), and the plate was placed in the dark for 5 min. The prepared DCFH solution (50 µL) was added to each well of the black plate. The fluorescence of each well was recorded at 535 nm using a microplate reader (Berthold Advances GmbH & Co., Bad Wildbad, Germany) at an excitation wavelength of 485 nm. The test samples and SIN-1 were tested at final concentrations of 40 and 10 μM, respectively."}, "[8]": {"assay": "DPPH radical-scavenging activity", "conditions": "500 μM, 30 min in the dark", "experimental": "For measuring the scavenging effect of analogs 1–12 on DPPH radicals, test samples (analogs 1–12 and ascorbic acid [positive reference standard]; final concentration: 500 μM) were mixed with a DPPH solution, and absorbance was measured at 517 nm after storing for 30 min in the dark to determine % DPPH radical-scavenging ability.\nL-Ascorbic acid was used as a positive control. Test samples (analogs 1–12 and L-ascorbic acid; 5 mM, 20 μL) dissolved in DMSO were added to each well of a 96-well plate containing the DPPH methanol solution (0.2 mM, 180 μL), and the plate was placed in the dark at 20 °C for 30 min. The absorbance was recorded at 517 nm using a VE microplate reader to calculate DPPH radical-scavenging activity."}, "[9]": {"assay": "ABTS cation radical scavenging activity", "conditions": "100 μM, 2 min in the dark", "experimental": "To measure the scavenging effects of analogs 1–12 on ABTS^+ radicals, ABTS was initially treated with potassium persulfate to yield ABTS^•+. The formed ABTS^+ radical solution was mixed with test samples (analogs 1–12 and Trolox [positive reference standard]; final concentration: 100 μM), and absorbance was measured at 732 nm after storing for 2 min in the dark to determine %ABTS^•+-scavenging ability.\nABTS^•+ was prepared by mixing equal amounts of ABTS (14 mM in H2O) and K2S2O8 (4.9 mM in H2O) and storing in the dark at 20 °C for 16 h. Prior to use, the absorbance of the prepared ABTS^•+ solution was adjusted to 0.7 ± 0.02 at 732 nm by dilution with methanol. A cosolvent (EtOH:DMSO = 10:1 [v/v]) was used to prepare solutions of the test samples (analogs 1–12 and Trolox [positive reference standard]). All test samples were used at a final concentration of 100 μM. The test sample solution (10 μL) was mixed with the adjusted ABTS^•+ solution (90 μL) in each well of a 96-well plate, and the mixture was kept in the dark at 20 °C for 2 min. The absorbance was recorded at 732 nm at 1 min intervals for 10 min using a VE microplate reader. The percentage of radical-scavenging activity was calculated using the formula % radical-scavenging activity = [(Abscontrol − Abssample)/Abscontrol] × 100, where Abssample and Abscontrol are absorbances of the sample and control, respectively."}}, "note": "Entries after “also recorded” stand apart in the source; their conditions may differ.", "data": [{"smiles": "O=C1/C(=C/c2ccc(O)cc2)SC(=S)N1Cc1ccccc1", "note": "[Compound 1, (Z)-3-Benzyl-5-(4-hydroxybenzylidene)-2-thioxothiazolidin-4-one]", "values": [{"measurement": "cytotoxicity to B16F10 cells", "setting": "[1]", "value": "not cytotoxic; also recorded: no perceptible cytotoxicity"}, {"measurement": "cytotoxicity to HaCaT cells", "setting": "[2]", "value": "no perceptible cytotoxicity"}, {"measurement": "inhibition of cellular tyrosinase activity compared with kojic acid", "setting": "[3]; 10 μM", "value": "more strongly than kojic acid"}, {"measurement": "effect on stimulator-enhanced cellular tyrosinase activity", "setting": "[3]; 2, 5 and 10 μM, concentration-dependent", "value": "significantly decreased"}, {"measurement": "relative dark area of cells compared with kojic acid at the same concentration", "setting": "[4]; 10 μM, L-DOPA staining", "value": "significantly less than that of kojic acid"}, {"measurement": "number of cells strongly stained with melanin", "setting": "[4]; kojic acid 10 μM, analogs 2, 5 and 10 μM, α-MSH + IBMX, 72 h", "value": "reduced the number of strongly stained cells in a concentration-dependent manner"}, {"measurement": "inhibitory potency relative to kojic acid (IC50 ratio)", "setting": "[5]", "value": "four-fold lower"}, {"measurement": "stimulator-induced increased melanin content reduced by (fold)", "setting": "[6]; 10 μM, α-MSH 1 μM + IBMX 200 μM, stimulators alone 5.0-fold increase", "value": 1.9, "unit": "fold"}, {"measurement": "effect on stimulator-induced increase in melanin contents", "setting": "[6]; 2, 5 and 10 μM, concentration-dependent, α-MSH + IBMX", "value": "significantly decreased"}]}, {"smiles": "O=C1/C(=C/c2ccc(O)c(O)c2)SC(=S)N1Cc1ccccc1", "note": "[Compound 2, (Z)-3-Benzyl-5-(3,4-dihydroxybenzylidene)-2-thioxothiazolidin-4-one]", "values": [{"measurement": "cytotoxicity to B16F10 cells", "setting": "[1]", "value": "cytotoxic at all tested concentrations"}, {"measurement": "ROS-scavenging activity (SIN-1-induced ROS levels)", "setting": "[7]", "value": "greater ROS-scavenging potency than Trolox"}, {"measurement": "% DPPH radical-scavenging", "setting": "[8]", "value": 95, "unit": "%"}, {"measurement": "% ABTS^•+ scavenging", "setting": "[9]", "value": 99, "unit": "%"}]}, {"smiles": "COc1ccc(/C=C2\\SC(=S)N(Cc3ccccc3)C2=O)cc1O", "note": "[Compound 5, (Z)-3-Benzyl-5-(3-hydroxy-4-methoxybenzylidene)-2-thioxothiazolidin-4-one]", "values": [{"measurement": "% DPPH radical-scavenging", "setting": "[8]", "value": 17, "unit": "%"}, {"measurement": "% ABTS^•+ scavenging", "setting": "[9]", "value": 71, "unit": "%"}]}, {"smiles": "Cc1c(C)c2c(c(C)c1O)CCC(C)(C(=O)O)O2", "note": "(stereo not drawn) [Trolox, reference compound]", "values": [{"measurement": "ROS-scavenging activity (SIN-1-induced ROS levels)", "setting": "[7]", "value": "significantly reduced"}, {"measurement": "% ABTS^•+ scavenging", "setting": "[9]", "value": 99, "unit": "%"}]}, {"smiles": "O=C1O[C@H]([C@@H](O)CO)C(O)=C1O", "note": "[Ascorbic acid, L-Ascorbic acid, reference compound]", "values": [{"measurement": "% DPPH radical-scavenging", "setting": "[8]", "value": 97, "unit": "%"}]}]}
